In BigSolDB 2.1:

CS(=O)(=O)c1ccc([C@@H](O)[C@@H](CF)NC(=O)C(Cl)Cl)cc1
solubility (mole fraction)
Details	283.15 K	288.15 K	293.15 K	298.15 K	303.15 K	308.15 K	313.15 K	318.15 K	323.15 K
in 2-ethylhexanol	0.000183	0.000254	0.000319	0.000383	0.000521	0.000635	0.000813	0.00103	0.00129
in ethanol	0.00151	0.00196	0.00244	0.00309	0.00369	0.00461	0.00562	0.00702	0.00842
in isobutanol	0.000293	0.000385	0.000497	0.000613	0.000819	0.00104	0.00137	0.0017	0.00224
in isopentanol	0.000487	0.000586	0.000765	0.000959	0.00123	0.00149	0.00191	0.00238	0.00285
in isopropanol	0.00061	0.00076	0.00101	0.00133	0.00169	0.00218	0.00278	0.00363	0.00457
in n-butanol	0.000512	0.000648	0.000821	0.00112	0.0014	0.00183	0.00236	0.00302	0.00385
in n-propanol	0.000974	0.00125	0.00165	0.00215	0.00269	0.00359	0.00437	0.00563	0.00712
in propionic acid	0.00027	0.000347	0.000447	0.000562	0.00073	0.000961	0.00123	0.0016	0.00211
